Patent US20220409619A1, “INHIBITORS OF HUMAN IMMUNODEFICIENCY VIRUS REPLICATION” (VIIV HEALTHCARE UK (No. 5) LIMITED, priority 2019, published 2022)

What was measured:
[1] = system: recombinant NL4-3 virus (nef section replaced with Renilla luciferase gene) in MT-2 cells; assay: HIV cell culture assay (antiviral activity, luciferase readout); assay type: cell-based; conditions: Renilla, NL43
Experimental: HIV cell culture assay—MT-2 cells, 293T cells and the proviral DNA clone of NL4-3 virus were obtained from the NIH AIDS Research and Reference Reagent Program. MT-2 cells were propagated in RPMI 1640 media supplemented with 10% heat inactivated fetal bovine serum (FBS), 100 μg/ml penicillin G and up to 100 units/mL streptomycin. The 293T cells were propagated in DMEM media supplemented with 10% heat inactivated FBS, 100 μg/mL penicillin G and 100 μg/mL streptomycin. A recombinant NL4-3 proviral clone, in which a section of the nef gene was replaced with the Renilla luciferase gene, was used to make the reference virus used in these studies. The recombinant virus was prepared through transfection of the recombinant NL4-3 proviral clone into 293T cells using Transit-293 Transfection Reagent from Mirus Bio LLC (Madison, Wis.). Supernatent was harvested after 2-3 days and the amount of virus present was titered in MT-2 cells using luciferase enzyme activity as a marker by measuring luciferase enzyme activity. Luciferase was quantitated using the EnduRen Live Cell Substrate from Promega (Madison, Wis.). Antiviral activities of compounds toward the recombinant virus were quantified by measuring luciferase activity in MT-2 cells infected for 4-5 days with the recombinant virus in the presence of serial dilutions of the compound.
The 50% effective concentration (EC50) was calculated by using the exponential form of the median effect equation where (Fa)=1/[1+(ED50/drug conc.)^m] (Johnson V A, Byington R T. Infectivity Assay. In Techniques in HIV Research. ed. Aldovini A, Walker B D. 71-76. New York: Stockton Press. 1990). Curve fitting and analysis were performed with ActivityBase XE Runner software version 9.1.0.4 using model 203 (ID Business Solutions, LTD, Guildford, UK).

[2] = Compound cytotoxicity, XTT-based colorimetric assay; assay type: cell-based; conditions: human; uninfected MT2 cells, day 4, XTT-based colorimetric assay
Experimental: Compound cytotoxicity and the corresponding CC50 values were determined using the same protocol as described in the antiviral assay except that uninfected cells were used. Cytotoxicity was assessed on day 4 in uninfected MT2 cells by using a XTT (2,3-bis[2-Methoxy-4-nitro-5-sulfophenyl]-2H-tetrazolium-5-carboxyanilide inner salt)-based colorimetric assay (Sigma-Aldrich, St Louis, Mo.).

SMILES | EC50 [1] | CC50 at 4 days [2]
Cn1nc(NS(C)(=O)=O)c2c(Cl)ccc(-n3c([C@@H](Cc4cc(F)cc(F)c4)NC(=O)Cn4nc(C(F)F)c5c4C(F)(F)[C@@H]4C[C@H]54)nc(-c4ccccc4)cc3=O)c21 (atropisomer, axis not shown; (aR)) [Example 2, N-((R)-1-(1-(4-chloro-1-methyl-3-(methylsulfonamido)-1H-indazol-7-yl)-6-oxo-4-phenyl-1,6-dihydropyrimidin-2-yl)-2-(3,5-difluorophenyl)ethyl)-2-((3bS,4aR)-3-(difluoromethyl)-5,5-difluoro-3b,4,4a,5-tetrahydro-1H-cyclopropa[3,4]cyclopenta[1,2-c]pyrazol-1-yl)acetamide] | 190 nM | > 500 nM
Cn1nc(NS(C)(=O)=O)c2c(Cl)ccc(-n3c([C@H](Cc4cc(F)cc(F)c4)NC(=O)Cn4nc(C(F)F)c5c4C(F)(F)[C@@H]4C[C@H]54)nc(-c4cnc(C(C)(C)O)s4)cc3=O)c21 (atropisomer, axis not shown; (P)) [Example 25, N-((S)-1-((1P)-1-(4-chloro-1-methyl-3-(methylsulfonamido)-1H-indazol-7-yl)-4-(2-(2-hydroxypropan-2-yl)thiazol-5-yl)-6-oxo-1,6-dihydropyrimidin-2-yl)-2-(3,5-difluorophenyl)ethyl)-2-((3bS,4aR)-3-(difluoromethyl)-5,5-difluoro-3b,4,4a,5-tetrahydro-1H-cyclopropa[3,4]cyclopenta[1,2-c]pyrazol-1-yl)acetamide] | 1.5 nM | > 100 nM
COc1cncc(-c2cc(=O)n(-c3ccc(Cl)c4c(NS(=O)(=O)C5CC5)nn(CC(F)F)c34)c([C@H](Cc3cc(F)cc(F)c3)NC(=O)Cn3nc(C(F)F)c4c3C(F)(F)[C@@H]3C[C@H]43)n2)n1 (atropisomer, axis not shown; (P)) [Example 40, N-((S)-1-((1P)-1-(4-chloro-3-(cyclopropanesulfonamido)-1-(2,2-difluoroethyl)-1H-indazol-7-yl)-4-(6-methoxypyrazin-2-yl)-6-oxo-1,6-dihydropyrimidin-2-yl)-2-(3,5-difluorophenyl)ethyl)-2-((3bS,4aR)-3-(difluoromethyl)-5,5-difluoro-3b,4,4a,5-tetrahydro-1H-cyclopropa[3,4]cyclopenta[1,2-c]pyrazol-1-yl)acetamide] | 0.6 nM | > 100 nM
O=C(Cn1nc(C(F)F)c2c1C(F)(F)[C@@H]1C[C@H]21)N[C@@H](Cc1cc(F)cc(F)c1)c1nc(-c2ccc(C(F)(F)F)nc2)cc(=O)n1-c1ccc(Cl)c2c(NS(=O)(=O)C3CC3)nn(CC(F)F)c12 (atropisomer, axis not shown; (P)) [Example 38, N-((S)-1-((1P)-1-(4-chloro-3-(cyclopropanesulfonamido)-1-(2,2-difluoroethyl)-1H-indazol-7-yl)-6-oxo-4-(6-(trifluoromethyl)pyridin-3-yl)-1,6-dihydropyrimidin-2-yl)-2-(3,5-difluorophenyl)ethyl)-2-((3bS,4aR)-3-(difluoromethyl)-5,5-difluoro-3b,4,4a,5-tetrahydro-1H-cyclopropa[3,4]cyclopenta[1,2-c]pyrazol-1-yl)acetamide] | 0.39 nM | > 100 nM
Cn1nc(NS(C)(=O)=O)c2c(Cl)ccc(-n3c([C@H](Cc4cc(F)cc(F)c4)NC(=O)Cn4nc(C(F)F)c5c4C(F)(F)[C@@H]4C[C@H]54)nc(-c4nccc(C(F)(F)F)n4)cc3=O)c21 (atropisomer, axis not shown; (aR)) [Example 6, N-((S)-1-((1′P)-1′-(4-chloro-1-methyl-3-(methylsulfonamido)-1H-indazol-7-yl)-6′-oxo-4-(trifluoromethyl)-1′,6′-dihydro-[2,4′-bipyrimidin]-2′-yl)-2-(3,5-difluorophenyl)ethyl)-2-((3bS,4aR)-3-(difluoromethyl)-5,5-difluoro-3b,4,4a,5-tetrahydro-1H-cyclopropa[3,4]cyclopenta[1,2-c]pyrazol-1-yl)acetamide] | 0.054 nM | > 100 nM
O=C(Cn1nc(C(F)F)c2c1C(F)(F)[C@@H]1C[C@H]21)N[C@@H](Cc1cc(F)cc(F)c1)c1nc(-c2ccc(Cl)cn2)cc(=O)n1-c1ccc(Cl)c2c(NS(=O)(=O)C3CC3)nn(CC(F)F)c12 (atropisomer, axis not shown; (P)) [Example 35, N-((S)-1-((1P)-1-(4-chloro-3-(cyclopropanesulfonamido)-1-(2,2-difluoroethyl)-1H-indazol-7-yl)-4-(5-chloropyridin-2-yl)-6-oxo-1,6-dihydropyrimidin-2-yl)-2-(3,5-difluorophenyl)ethyl)-2-((3bS,4aR)-3-(difluoromethyl)-5,5-difluoro-3b,4,4a,5-tetrahydro-1H-cyclopropa[3,4]cyclopenta[1,2-c]pyrazol-1-yl)acetamide] | 0.72 nM | > 100 nM
O=C(Cn1nc(C(F)F)c2c1C(F)(F)[C@@H]1C[C@H]21)N[C@@H](Cc1cc(F)cc(F)c1)c1nc(-c2cnccn2)cc(=O)n1-c1ccc(Cl)c2c(NS(=O)(=O)C3CC3)nn(CC(F)F)c12 (atropisomer, axis not shown; (P)) [Example 50, N-((S)-1-((1P)-1-(4-chloro-3-(cyclopropanesulfonamido)-1-(2,2-difluoroethyl)-1H-indazol-7-yl)-6-oxo-4-(pyrazin-2-yl)-1,6-dihydropyrimidin-2-yl)-2-(3,5-difluorophenyl)ethyl)-2-((3bS,4aR)-3-(difluoromethyl)-5,5-difluoro-3b,4,4a,5-tetrahydro-1H-cyclopropa[3,4]cyclopenta[1,2-c]pyrazol-1-yl)acetamide] | 0.81 nM | > 100 nM
COc1cnc(-c2cc(=O)n(-c3ccc(Cl)c4c(NS(=O)(=O)C5CC5)nn(CC(F)F)c34)c([C@H](Cc3cc(F)cc(F)c3)NC(=O)Cn3nc(C(F)F)c4c3C(F)(F)[C@@H]3C[C@H]43)n2)cn1 (atropisomer, axis not shown; (P)) [Example 31, N-((S)-1-((1P)-1-(4-chloro-3-(cyclopropanesulfonamido)-1-(2,2-difluoroethyl)-1H-indazol-7-yl)-4-(5-methoxypyrazin-2-yl)-6-oxo-1,6-dihydropyrimidin-2-yl)-2-(3,5-difluorophenyl)ethyl)-2-((3bS,4aR)-3-(difluoromethyl)-5,5-difluoro-3b,4,4a,5-tetrahydro-1H-cyclopropa[3,4]cyclopenta[1,2-c]pyrazol-1-yl)acetamide] | 0.53 nM | > 100 nM
Cn1nc(NS(C)(=O)=O)c2c(Cl)ccc(-n3c([C@H](Cc4cc(F)cc(F)c4)NC(=O)Cn4nc(C(F)F)c5c4C(F)(F)[C@@H]4C[C@H]54)nc(-c4cccc(F)n4)cc3=O)c21 (atropisomer, axis not shown; (P)) [Example 23, N-((S)-1-((1P)-1-(4-chloro-1-methyl-3-(methylsulfonamido)-1H-indazol-7-yl)-4-(6-fluoropyridin-2-yl)-6-oxo-1,6-dihydropyrimidin-2-yl)-2-(3,5-difluorophenyl)ethyl)-2-((3bS,4aR)-3-(difluoromethyl)-5,5-difluoro-3b,4,4a,5-tetrahydro-1H-cyclopropa[3,4]cyclopenta[1,2-c]pyrazol-1-yl)acetamide] | 0.42 nM | > 100 nM
COC(C)(C)C#Cc1cc(=O)n(-c2ccc(Cl)c3c(NS(=O)(=O)C4CC4)nn(CC(F)F)c23)c([C@H](Cc2cc(F)cc(F)c2)NC(=O)Cn2nc(C(F)F)c3c2C(F)(F)[C@@H]2C[C@H]32)n1 (atropisomer, axis not shown; (P)) [Example 41, N-((S)-1-((1P)-1-(4-chloro-3-(cyclopropanesulfonamido)-1-(2,2-difluoroethyl)-1H-indazol-7-yl)-4-(3-methoxy-3-methylbut-1-yn-1-yl)-6-oxo-1,6-dihydropyrimidin-2-yl)-2-(3,5-difluorophenyl)ethyl)-2-((3bS,4aR)-3-(difluoromethyl)-5,5-difluoro-3b,4,4a,5-tetrahydro-1H-cyclopropa[3,4]cyclopenta[1,2-c]pyrazol-1-yl)acetamide] | 0.064 nM | > 100 nM
Cn1nc(NS(C)(=O)=O)c2c(Cl)ccc(-n3c([C@H](Cc4cc(F)cc(F)c4)NC(=O)Cn4nc(C(F)F)c5c4C(F)(F)[C@@H]4C[C@H]54)nc(-c4ccn(CC(C)(F)F)n4)cc3=O)c21 (atropisomer, axis not shown; (P)) [Example 8, N-((S)-1-((1P)-1-(4-chloro-1-methyl-3-(methylsulfonamido)-1H-indazol-7-yl)-4-(1-(2,2-difluoropropyl)-1H-pyrazol-3-yl)-6-oxo-1,6-dihydropyrimidin-2-yl)-2-(3,5-difluorophenyl)ethyl)-2-((3bS,4aR)-3-(difluoromethyl)-5,5-difluoro-3b,4,4a,5-tetrahydro-1H-cyclopropa[3,4]cyclopenta[1,2-c]pyrazol-1-yl)acetamide] | 0.28 nM | > 100 nM
